In brackets after ≈: the same amount, converted by molar mass. Activity calls are given as the source filed them. No cut-off for these calls is given here.
Assays:
DU-145 = experiment: Cytotoxicity against human DU145 cells by MTT assay; assay type: functional, cell-based
Bacillus subtilis = experiment: Antibacterial activity against Bacillus subtilis MTCC 121 after 24 hrs by well diffusion method; assay type: functional
A549 = experiment: Cytotoxicity against human A549 cells by MTT assay; assay type: functional, cell-based
MCF7 = experiment: Cytotoxicity against human MCF7 cells by MTT assay; assay type: functional, cell-based
Escherichia coli = experiment: Antibacterial activity against Escherichia coli MTCC 739 after 24 hrs by well diffusion method; assay type: functional
Staphylococcus aureus [1] = experiment: Antibacterial activity against Staphylococcus aureus MTCC 96 after 24 hrs by well diffusion method; assay type: functional
Pseudomonas aeruginosa = experiment: Antibacterial activity against Pseudomonas aeruginosa MTCC 2453 after 24 hrs by well diffusion method; assay type: functional
Raoultella planticola = experiment: Antibacterial activity against Klebsiella planticola MTCC 530 after 24 hrs by well diffusion method; assay type: functional
Staphylococcus aureus [2] = experiment: Antibacterial activity against Staphylococcus aureus MLS16 MTCC 2940 after 24 hrs by well diffusion method; assay type: functional
Micrococcus luteus = experiment: Antibacterial activity against Micrococcus luteus MTC 2470 after 24 hrs by well diffusion method; assay type: functional
HeLa = experiment: Cytotoxicity against human HeLa cells by MTT assay; assay type: functional, cell-based
[3] = Homo sapiens, A549, read-out: IC50
[4] = Homo sapiens, MCF7, read-out: IC50
[5] = Homo sapiens, DU-145, read-out: IC50
[6] = Homo sapiens, HeLa, read-out: IC50

Row | Compound | MIC (Bacillus subtilis; MTCC 121, 24 h) [µg/mL] | IC50 (A549; [3]) [µM] | IC50 (MCF7; [4]) [µM] | MIC (Escherichia coli; MTCC 739, 24 h) [µg/mL] | MIC (Staphylococcus aureus [1]; MTCC 96, 24 h) [µg/mL] | MIC (Pseudomonas aeruginosa; MTCC 2453, 24 h) [µg/mL] | MIC (Raoultella planticola; MTCC 530, 24 h) [µg/mL] | MIC (Staphylococcus aureus [2]; MLS16 MTCC 2940, 24 h) [µg/mL] | MIC (Micrococcus luteus; MTC 2470, 24 h) [µg/mL] | IC50 (DU-145; [5]) [µM] | MIC (Bacillus subtilis) | MIC (Escherichia coli) | MIC (Staphylococcus aureus [1]) | MIC (Pseudomonas aeruginosa) | MIC (Raoultella planticola) | MIC (Staphylococcus aureus [2]) | MIC (Micrococcus luteus) | IC50 (HeLa; [6]) [µM] | other results
1 | C[C@H](NC(=S)Nc1ccccc1)c1nc2ccccc2[nH]1 | 12.5 (≈ 42.2 µM) | 188 | 196 | > 200 | 12.5 (≈ 42.2 µM) | > 200 | > 200 | > 200 | > 200 |  |  |  |  |  |  |  |  |  | IC50 (DU-145; du-145): Not Active; IC50 (HeLa; hela): Not Active
2 | C[C@@H](NC(=S)NCc1ccccc1)c1nc2ccccc2[nH]1 |  | 18.7 | 14.3 |  |  |  |  |  |  | 28.7 | inactive | inactive | inactive | inactive | inactive | inactive | inactive |  | IC50 (HeLa; hela): Not Active
3 | CC(C)[C@H](NC(=S)NCc1ccccc1)c1nc2ccccc2[nH]1 | 12.5 (≈ 36.9 µM) | 56.1 | 57.8 | > 200 | 12.5 (≈ 36.9 µM) | > 200 | > 200 | > 200 | > 200 | 48.5 |  |  |  |  |  |  |  | 49.9 | 
4 | S=C(NCc1ccccc1)N[C@@H](Cc1ccccc1)c1nc2ccccc2[nH]1 | > 200 | 32.8 | 40.2 | > 200 | 25 (≈ 64.7 µM) | > 200 | > 200 | > 200 | > 200 | 39.7 |  |  |  |  |  |  |  | 30.1 | 
5 | CC(C)[C@@H](NC(=S)Nc1cc(C(F)(F)F)cc(C(F)(F)F)c1)c1nc2ccccc2[nH]1 |  | 22.4 | 16.4 |  |  |  |  |  |  | 20.2 | inactive | inactive | inactive | inactive | inactive | inactive | inactive | 16.2 | 
6 | CC(C)[C@H](NC(=S)Nc1cc(C(F)(F)F)cc(C(F)(F)F)c1)c1nc2ccccc2[nH]1 | 12.5 (≈ 27.1 µM) | 25.1 | 24.3 | 12.5 (≈ 27.1 µM) | 25 (≈ 54.3 µM) | 6.25 (≈ 13.6 µM) | 25 (≈ 54.3 µM) | 12.5 (≈ 27.1 µM) | 25 (≈ 54.3 µM) | 26.1 |  |  |  |  |  |  |  | 28.9 | 
7 | CC(C)C[C@@H](NC(=S)Nc1cc(C(F)(F)F)cc(C(F)(F)F)c1)c1nc2ccccc2[nH]1 |  | 10.2 | 91 |  |  |  |  |  |  | 16.5 | inactive | inactive | inactive | inactive | inactive | inactive | inactive | 10.4 | 
8 | S=C(Nc1ccccc1)N[C@H](Cc1ccccc1)c1nc2ccccc2[nH]1 |  | 16.2 | 9.4 |  |  |  |  |  |  | 18.4 | inactive | inactive | inactive | inactive | inactive | inactive | inactive | 10.4 | 
9 | CC(C)C[C@@H](NC(=S)Nc1ccccc1)c1nc2ccccc2[nH]1 |  | 18.7 | 11.9 |  |  |  |  |  |  | 20 | inactive | inactive | inactive | inactive | inactive | inactive | inactive | 12.1 | 
10 | S=C(Nc1ccccc1)N[C@@H](Cc1ccccc1)c1nc2ccccc2[nH]1 | > 200 |  |  | 12.5 (≈ 33.6 µM) | 25 (≈ 67.1 µM) | > 200 | > 200 | > 200 | > 200 |  |  |  |  |  |  |  |  |  | IC50 (DU-145; du-145): Not Active; IC50 (A549; a549): Not Active; IC50 (MCF7; mcf7): Not Active; IC50 (HeLa; hela): Not Active
11 | C[C@H](NC(=S)NCc1ccccc1)c1nc2ccccc2[nH]1 | 25 (≈ 80.5 µM) |  | 217 | > 200 | 12.5 (≈ 40.3 µM) | > 200 | > 200 | > 200 | > 200 | 226 |  |  |  |  |  |  |  |  | IC50 (A549; a549): Not Active
12 | C[C@H](NC(=S)Nc1cc(C(F)(F)F)cc(C(F)(F)F)c1)c1nc2ccccc2[nH]1 | 25 (≈ 57.8 µM) | 220 | 187 | > 200 | 12.5 (≈ 28.9 µM) | > 200 | > 200 | 12.5 (≈ 28.9 µM) | 25 (≈ 57.8 µM) | 154 |  |  |  |  |  |  |  | 133 | 
13 | NC[C@@H]1O[C@H](O[C@H]2[C@@H](O)[C@H](O[C@@H]3[C@@H](O)[C@H](N)C[C@H](N)[C@H]3O[C@H]3O[C@H](CN)[C@@H](O)[C@H](O)[C@H]3N)O[C@@H]2CO)[C@H](N)[C@@H](O)[C@@H]1O [FRAMYCETIN] | 12.5 (≈ 20.3 µM) |  |  | 12.5 (≈ 20.3 µM) | 12.5 (≈ 20.3 µM) | 12.5 (≈ 20.3 µM) | 12.5 (≈ 20.3 µM) | 12.5 (≈ 20.3 µM) | 12.5 (≈ 20.3 µM) |  |  |  |  |  |  |  |  |  | 
14 | C[C@@H](NC(=S)Nc1ccccc1)c1nc2ccccc2[nH]1 |  | 14.8 | 16.4 |  |  |  |  |  |  | 22.1 | inactive | inactive | inactive | inactive | inactive | inactive | inactive | 12.4 | 
15 | FC(F)(F)c1cc(NC(=S)N[C@@H](Cc2ccccc2)c2nc3ccccc3[nH]2)cc(C(F)(F)F)c1 | > 200 | 19 | 19.2 | 12.5 (≈ 24.6 µM) | 12.5 (≈ 24.6 µM) | > 200 | > 200 | > 200 | > 200 | 20.4 |  |  |  |  |  |  |  | 18.2 | 
16 | CC(C)C[C@H](NC(=S)Nc1ccccc1)c1nc2ccccc2[nH]1 | > 200 | 28.6 | 25.8 | > 200 | 25 (≈ 73.9 µM) | > 200 | > 200 | > 200 | > 200 | 28.9 |  |  |  |  |  |  |  | 29.1 | 
17 | CC(C)C[C@H](NC(=S)NCc1ccccc1)c1nc2ccccc2[nH]1 | > 200 | 75.7 |  | > 200 | > 200 | > 200 | > 200 | > 200 | > 200 | 21.1 |  |  |  |  |  |  |  | 31.2 | 
18 | COc1cccc2c1C(=O)c1c(O)c3c(c(O)c1C2=O)C[C@@](O)(C(=O)CO)C[C@@H]3O[C@H]1C[C@H](N)[C@H](O)[C@H](C)O1 [DOXORUBICIN] |  |  |  |  |  |  |  |  |  | 0.8 |  |  |  |  |  |  |  |  | 
19 | CC(C)C[C@H](NC(=S)Nc1cc(C(F)(F)F)cc(C(F)(F)F)c1)c1nc2ccccc2[nH]1 | 12.5 (≈ 26.3 µM) | 17.4 | 16.3 | 12.5 (≈ 26.3 µM) | 25 (≈ 52.7 µM) | 25 (≈ 52.7 µM) | 12.5 (≈ 26.3 µM) | 12.5 (≈ 26.3 µM) | 6.25 (≈ 13.2 µM) | 17.2 |  |  |  |  |  |  |  | 18.1 | 
20 | FC(F)(F)c1cc(NC(=S)N[C@H](Cc2ccccc2)c2nc3ccccc3[nH]2)cc(C(F)(F)F)c1 |  | 15.8 | 12.1 |  |  |  |  |  |  | 17.4 | inactive | inactive | inactive | inactive | inactive | inactive | inactive | 13.2 | 
21 | CC(C)[C@@H](NC(=S)NCc1ccccc1)c1nc2ccccc2[nH]1 |  | 11.3 | 11.1 |  |  |  |  |  |  | 17.3 | inactive | inactive | inactive | inactive | inactive | inactive | inactive | 12.3 | 
22 | S=C(NCc1ccccc1)N[C@H](Cc1ccccc1)c1nc2ccccc2[nH]1 |  | 26.5 | 32.2 |  |  |  |  |  |  | 24.3 | inactive | inactive | inactive | inactive | inactive | inactive | inactive |  | IC50 (HeLa; hela): Not Active
23 | CC(C)[C@@H](NC(=S)Nc1ccccc1)c1nc2ccccc2[nH]1 |  | 31.5 |  |  |  |  |  |  |  | 34.8 | inactive | inactive | inactive | inactive | inactive | inactive | inactive |  | IC50 (MCF7; mcf7): Not Active; IC50 (HeLa; hela): Not Active
24 | C[C@@H](NC(=S)Nc1cc(C(F)(F)F)cc(C(F)(F)F)c1)c1nc2ccccc2[nH]1 |  | 15.2 | 10.3 |  |  |  |  |  |  | 17.6 | inactive | inactive | inactive | inactive | inactive | inactive | inactive | 16.1 | 
25 | CC(C)[C@H](NC(=S)Nc1ccccc1)c1nc2ccccc2[nH]1 | > 200 | 5.2 | 9.8 | > 200 | > 200 | > 200 | > 200 | > 200 | > 200 | 12.3 |  |  |  |  |  |  |  | 11.1 | 

From ChEMBL document CHEMBL3352042, “Synthesis of novel benzimidazole functionalized chiral thioureas and evaluation of their antibacterial and anticancer activities” (Bioorg Med Chem Lett, 2014)
